According to paper PMC8111572 (Inorganic chemistry, 2020):
Read-outs that look alike come from different tables or passages of the source. Marks after values point to notes of the source that are not given here.

Legend:
[1] = cited from earlier work
[2] = protonation constant, cited from earlier work
[3] = −log [M]free when [M]total = 10^−6 M and [L]total = 10^−5 M at pH = 7.4; cited from earlier work
[4] = −log [M]free when [M]total = 10^−6 M and [L]total = 10^−5 M at pH = 7.4; cited from earlier work; remark: listed apart in the source
[5] = Ligand protonation constants by potentiometric titration; assay type: physicochemical; settings: protonation constant, 25.0 °C, 0.1 M KCl
[6] = cited from earlier work; remark: listed apart in the source
[7] = pLa value; assay type: binding; settings: −log [M]free when [M]total = 10^−6 M and [L]total = 10^−5 M at pH = 7.4; calculated (Table S1)
[8] = pLu value; assay type: binding; settings: −log [M]free when [M]total = 10^−6 M and [L]total = 10^−5 M at pH = 7.4; calculated (Table S1)

Cc1cccc(C)n1 [2,6-dimethylpyridinium cation]
pKa [1]: 6.7

O=C(O)CN(CCN(CC(=O)O)Cc1cccc(C(=O)O)n1)Cc1cccc(C(=O)O)n1 [Octapa]
log K1 ([2]; 0.15 M NaCl): 8.52
log K2 ([2]; 0.15 M NaCl): 5.40
log K3 ([2]; 0.15 M NaCl): 3.65
log K4 ([2]; 0.15 M NaCl): 2.97
log K5 ([2]; 0.15 M NaCl): 1.66
log K1 ([2]; 0.16 M NaCl): 8.58
log K2 ([2]; 0.16 M NaCl): 5.43
log K3 ([2]; 0.16 M NaCl): 3.75
log K4 ([2]; 0.16 M NaCl): 3.08
log K5 ([2]; 0.16 M NaCl): 2.21
pLa [3]: 19.7
pLu [4]: 19.8

CN(CCOCCN(C)Cc1cccc(C(=O)O)n1)Cc1cccc(C(=O)O)n1 [OxyMepa, 6,6’-(((oxybis(ethane-2,1-diyl))bis(methylazanediyl))bis(methylene))dipicolinic acid]
log K1 [5]: 8.72(1)
log K2 [5]: 7.81(2)
log K3 [5]: 3.09(2)
log K4 [5]: 2.35(4)

O=C(O)CN(Cc1cccc(CN(CC(=O)O)Cc2cccc(C(=O)O)n2)n1)Cc1cccc(C(=O)O)n1 [Pypa]
pLa [3]: 19.9
pLu [4]: 22.6

O=C([O-])CN(CCN(CC(=O)[O-])CC(=O)O)CCN(CC(=O)[O-])CC(=O)O.[Gd+3] [Gd-DTPA]
kex298 (water exchange rate constant) [6]: 3.3e+06 s⁻¹

O=C(O)CN(CCOCCN(CC(=O)O)CC(=O)O)CC(=O)O [OBETA]
log K1 ([2]; 0.1 M KCl): 9.34^e
log K2 ([2]; 0.1 M KCl): 8.62^e
log K3 ([2]; 0.1 M KCl): 3.19^e
log K4 ([2]; 0.1 M KCl): 2.19^e
log K5 ([2]; 0.1 M KCl): 1.77^e

O=C(O)CN(CCOCCN(CC(=O)O)Cc1cccc(C(=O)O)n1)Cc1cccc(C(=O)O)n1 [Oxyaapa, 6,6’-(((oxybis(ethane-2,1-diyl))bis((carboxymethyl)azanediyl))bis(methylene))dipicolinic acid]
log K1 [5]: 8.47(4)
log K2 [5]: 7.63(2)
log K3 [5]: 3.66(4)
log K4 [5]: 2.90(1)
log K5 [5]: 1.77(12)
pLa [7]: 18.5
pLu [8]: 21.1

O=C(O)c1ccccn1 [pyridinium-2-carboxylic acid]
pKa [1]: 5.39

O=C([O-])CN1CCN(CC(=O)[O-])CCN(CC(=O)[O-])CCN(CC(=O)[O-])CC1.[Gd+3] [Gd-DOTA]
kex298 (water exchange rate constant) [6]: 4.1e+06 s⁻¹
